Read-outs that look alike come from different tables or passages of the source.
Tests used:
KB cells = assay: Cytotoxicity: 50% reduction in cell number of KB cells after three day incubation; format: cell-based; settings: Homo sapiens, 72 h, KB cells, three day incubation, read-out: Cytotoxicity ID50 KB
Procedure: (§1) The compounds of the present invention were tested for their degree of inhibitory activity on human type II DNA topoisomerase, their effect on the formation of protein-linked DNA breakage, and their cytotoxicity. The inhibitory activity for compounds of the present invention correlated with the ability of the compounds to cause DNA strand breakage. […] For a description of the assays used with respect to the compounds listed in Tables 1 to 5 see Thurston, L.S., Irie, H., Tani, S., Han, F. S., Liu, Z. C., Cheng, Y.C., and Lee, K. H., Antitumor Agents 78. Inhibition of Human DNA Topoisomerase II by Podophyllotoxin and Peltatin Analogues, J. Med. Chem. 29, 1547 (1986), and the references cited therein, herein incorporated by reference.
in cell number after three day incubation.

[1] = target: Human DNA topoisomerase II; assay: DNA topoisomerase II assay (P4 unknotting reaction); format: biochemical; settings: read-out: Inhibition of DNA Topoisomerase II Activity ID50
Procedure: as §1, with “cytotoxicity.” for “cytotoxicity. The inhibitory activity for compounds of the present invention correlated with the ability of the compounds to cause DNA strand breakage.”
Human DNA topoisomerase II was isolated from peripheral blast cells of a patient with acute leukemia. The isolation procedure is described in Thurston, L., Imakura, Y., Haruna, M., Li, Z. C., Liu, S. Y., and Lee, K. H., J. Med. Chem., 31, […] (1988) and is a partial combination of the procedure described in Goto, T., Laiapia, P. and Wang, J., J. Biol. Chem., 259, 10422 (1984) and Halligan, B., Edwards, K., and Liu, L., J. Biol. Chem., 260, 2475 (1985) which are herein specifically incorporated by reference.
Drugs were dissolved in Me2 SO at a concentration of 20 mM as the stock solution and diluted before use with water to the desired concentration of each drug.
The P4 unknotting reaction was a modification of the procedure described by Hseih, T., J. Biol. Chem., 258, 8413 (1985), which is herein specifically incorporated by reference.
The reaction mixture (20 μL), which contained 50 mM HEPES, pH 7.0, 50 mM KCI, 100 mM NaCl, 0.1 mM EDTA, 10 mM MgCl2, 1.0 mM ATP, 50 μg/mL bovine serum albumin, 0.4 μg P4knotted DNA, and enzyme, was incubated with or without drugs.
The reaction mixture was incubated at 37° C. for 30 min and terminated by adding 5.0 μl of a stop solution (2% sodium dodecyl sulfate, 20% glycerol, 0.05% bromophenol blue). These samples were loaded onto a 1% agarose gel and electrophoresed at 55 V overnight with an electrophoresis buffer that contained 90 mM Tris-boric acid, pH 8.3, and 2.5 mM EDTA. At completion, the gel was stained in 0.5 μg/mL of ethidium bromide. Then a photograph was taken of the DNA bands visualized with fluorescence induced by a long-wavelength UV lamp. […]

[2] = Table 1, based on degree of inhibition at 25, 50, and 100 μM
[3] = Table 2, based on degree of inhibition at 10, 25, 50 and 100 μM

Row | SMILES | IC50 (KB cells; Table 1) [µM] | IC50 [1, 2] [µM] | IC50 (KB cells; Table 2) [µM] | IC50 [1, 3] [µM]
1 | COc1cc(C2c3cc4c(cc3C(NCc3ccccc3)C3COC(=O)C23)OCO4)cc(OC)c1O (stereo not drawn) [Example 3, 4'-O-Demethyl-4β-benzylamino-4-desoxypodophyllotoxin] | 2.2 | 25 |  | 
2 | COc1cc(C2c3cc4c(cc3C(NCc3ccc([N+](=O)[O-])cc3)C3COC(=O)C23)OCO4)cc(OC)c1O (stereo not drawn) [Example 4, 4'-O-Demethyl-4β-(4"-nitrobenzylamino)-4-desoxypodophyllotoxin] | 0.4 | 50 |  | 
3 | COc1cc(C2c3cc4c(cc3C(NCc3cccc([N+](=O)[O-])c3)C3COC(=O)C23)OCO4)cc(OC)c1O (stereo not drawn) [Example 5, 4'-O-Demethyl-4β-(3"-nitrobenzylamino)-4-desoxypodophyllotoxin] | < 0.4 | 25 |  | 
4 | COc1cc(C2c3cc4c(cc3C(NCc3ccccc3[N+](=O)[O-])C3COC(=O)C23)OCO4)cc(OC)c1O (stereo not drawn) [Example 6, 4'-O-Demethyl-4β-(2"-nitrobenzylamino)-4-desoxypodophyllotoxin] | 1.8 | 50 |  | 
5 | COc1cc(C2c3cc4c(cc3C(NCc3ccccc3F)C3COC(=O)C23)OCO4)cc(OC)c1O (stereo not drawn) [Example 7, 4-O-Demethyl-4β-(2"-fluorobenzylamino)-4-desoxypodophyllotoxin] | 1.9 | 100 |  | 
6 | COc1cc(C2c3cc4c(cc3C(NCc3ccc(F)cc3)C3COC(=O)C23)OCO4)cc(OC)c1O (stereo not drawn) [Example 9, 4'-O-Demethyl-4β-(4"-fluorobenzylamino)-4-desoxypodophyllotoxin] | > 4 | 50 |  | 
7 | COc1cc(CNC2c3cc4c(cc3C(c3cc(OC)c(O)c(OC)c3)C3C(=O)OCC23)OCO4)cc(OC)c1 (stereo not drawn) [Example 12, 4'-O-Demethyl-4β-(3",5"-dimethoxybenzylamino)-4-desoxypodophyllotoxin] | 1.7 | 100 |  | 
8 | COc1cc(C2c3cc4c(cc3C(NCc3cccc(N)c3)C3COC(=O)C23)OCO4)cc(OC)c1O (stereo not drawn) [Example 13, 4'-O-Demethyl-4β-(3"-aminobenzylamino)-4-desoxypodophyllotoxin] | < 0.4 | 25 |  | 
9 | COc1cc(C2c3cc4c(cc3C(NCc3ccccc3N)C3COC(=O)C23)OCO4)cc(OC)c1O (stereo not drawn) [Example 14] | < 0.4 | 25 |  | 
10 | COc1cc(C2c3cc4c(cc3C(Nc3ccccc3)C3COC(=O)C23)OCO4)cc(O)c1O (stereo not drawn) [Example 17, 3',4'-O-Didemethyl-4β-anilino-4-desoxypodophyllotoxin] |  |  | 1.7 | 25
11 | COc1cc(C2c3cc4c(cc3C(Nc3ccc(F)cc3)C3COC(=O)C23)OCO4)cc(O)c1O (stereo not drawn) [Example 18, 3',4'-O-didemethyl-4β-(4"-floroanilino)-4-desoxypodophyllotoxin] |  |  | 3 | 10
12 | COc1cc(C2c3cc4c(cc3C(Nc3cccc(O)c3)C3COC(=O)C23)OCO4)cc(O)c1O (stereo not drawn) [Example 19, 3',4'-O-Didemethyl-4β-(3"-hydroxyanilino)-4-desoxypodophyllotoxin] |  |  | 1.6 | 10
13 | COc1cc(C2c3cc4c(cc3C(Nc3ccc5c(c3)OCCO5)C3COC(=O)C23)OCO4)cc(O)c1O (stereo not drawn) [Example 20] |  |  | 2.3 | 10
14 | COC(=O)c1cccc(N[C@@H]2c3cc4c(cc3[C@@H](c3cc(O)c(O)c(OC)c3)[C@H]3C(=O)OC[C@@H]32)OCO4)c1 [Example 21, 3'.4'-O-Didemethyl-4β-(3"-methoxycarbonylanilino)-4-desoxypodophyllotoxin] |  |  | 1.9 | 1
15 | COc1cc(C2c3cc4c(cc3C(Nc3ccc(C#N)cc3)C3COC(=O)C23)OCO4)cc(O)c1O (stereo not drawn) [Example 22, 3'.4'-O-Didemethyl-4β-(4"-cyanoanilino)-4-desoxypodophyllotoxin] |  |  | 1.5 | 10
